Experimental data taken from patent US20150329918A1, “JAGGED1 AS A MARKER AND THERAPEUTIC TARGET FOR BREAST CANCER BONE METASTASIS” (The Trustees of Princeton University, priority 2011, published 2015).

What was measured:
[1] = tested on: SCP28 tumor cells cocultured with MC3T3-E1 osteoblasts; experiment: Osteoblast coculture tumor cell quantification by luciferase assay; format: cell-based, human; conditions: luciferase assay after 6 days; MRK-003 1 μM or 5 μM; anti-IL-6 0.5 and 1.0 μg/ml
Procedure: MC3T3-E1 cells were seeded at 2×10^5 cells/well in 12-well plates. After confluence was achieved, luciferase/GFP-labeled (GFP+) control and JAG1 OE cells were added at 1×10^4 cells/well in triplicate and treated with DMSO or 1 μM MRK-003. Media supplemented with appropriate drugs were changed every 2 days. After 6 days the coculture was subjected to a luciferase assay to selectively quantify the number of tumor cells. These values were normalized against luciferase quantification of 12-well plates seeded with tumor cells alone.
For transfection experiments, MC3T3-E1 osteoblasts were seeded at 2×10^5 cells/well in 12-well plates and grown to 95% confluence. […] Following 6 days, the coculture was lysed and subjected to a luciferase assay to selectively quantify the number of tumor cells. For gene expression analysis, RNA from cocultures was collected in RLT lysis buffer, extracted with RNeasy mini kit (Qiagen), and subjected to quantitative RT-PCR.
For in vitro experiments, GSI-IX (Calbiochem) and TGFβ Receptor 1 (EMD Biosciences 616451) were dissolved in DMSO. […] RNA and protein were collected and analyzed for JAGGED1 expression as described above. […]

gamma-secretase = conditions: Lewis et al., 2007; cited from earlier work

SMILES: O=S1(=O)N[C@@]2(CN1CC(F)(F)F)[C@@H]1CC[C@H]2Cc2ccc(/C=C/CN3CCC(C(F)(F)F)CC3)cc2C1 [MRK-003]
- growth advantage of JAG1 OE tumor cells in osteoblast coculture [1]: abolished
- potency inhibiting gamma-secretase-mediated cleavage of Notch to NICD (gamma-secretase): sub-nanomolar
